# Patent US20250195521A1 (Revolution Medicines, Inc., priority 2020, published 2025)
# Values joined by “and” are separate entries in the source; they are usually repeats but may differ in a detail not shown here. Equal entries are not always repeated. Where two headings read alike, the source gives them in different places.
# Columns and labels:
# [1] = tested on: AsPC-1 (K-Ras G12D); experiment: Potency assay: pERK; format: cell-based, human; conditions: Homo sapiens
# Procedure: The purpose of this assay is to measure the ability of test compounds to inhibit K-Ras in cells. […] This procedure measures a decrease in cellular pERK in response to test compounds. The procedure described below in NCI-H358 cells is applicable to K-Ras G12C.
# NCI-H358 cells were grown and maintained using media and procedures recommended by the ATCC. On the day prior to compound addition, cells were plated in 384-well cell culture plates (40 μl/well) and grown overnight in a 37° C., 5% CO2 incubator. Test compounds were prepared in 10, 3-fold dilutions in DMSO, with a high concentration of 10 mM. On the day of assay, 40 nL of test compound was added to each well of cell culture plate using an Echo550 liquid handler (LabCyte®). Concentrations of test compound were tested in duplicate. After compound addition, cells were incubated 4 hours at 37° C., 5% CO2. Following incubation, culture medium was removed and cells were washed once with phosphate buffered saline.
# In some experiments, cellular pERK level was determined using the AlphaLISA SureFire Ultra p-ERK1/2 Assay Kit (PerkinElmer). Cells were lysed in 25 μL lysis buffer, with shaking at 600 RPM at room temperature. Lysate (10 μL) was transferred to a 384-well Opti-plate (PerkinElmer) and 5 μL acceptor mix was added. After a 2-hour incubation in the dark, 5 μL donor mix was added, plate was sealed, and incubated 2 hours at room temperature. Signal was read on an Envision plate reader (PerkinElmer) using standard AlphaLISA settings. Analysis of raw data was carried out in Excel (Microsoft) and Prism (GraphPad). Signal was plotted vs. the decadal logarithm of compound concentration, and IC50 was determined by fitting a 4-parameter sigmoidal concentration response model.
# In other experiments, cellular pERK was determined by In-Cell Western. Following compound treatment, cells were washed twice with 200 μL tris buffered saline (TBS) and fixed for 15 minutes with 150 μL 4% paraformaldehyde in TBS. Fixed cells were washed 4 times for 5 minutes with TBS containing 0.1% Triton X-100 (TBST) and then blocked with 100 μL Odyssey blocking buffer (LI-COR) for 60 minutes at room temperature. Primary antibody (PERK, CST-4370, Cell Signaling Technology) was diluted 1:200 in blocking buffer, and 50 μL was added to each well and incubated overnight at 4° C. Cells were washed 4 times for 5 minutes with TBST. Secondary antibody (IR-800CW rabbit, LI-COR, diluted 1:800) and DNA stain DRAQ5 (LI-COR, diluted 1:2000) were added and incubated 1-2 hours at room temperature. Cells were washed 4 times for 5 minutes with TBST. Plates were scanned on a Li—COR Odyssey CLx Imager. Analysis of raw data was carried out in Excel (Microsoft) and Prism (GraphPad). Signal was plotted vs. the decadal logarithm of compound concentration, and IC50 was determined by fitting a 4-parameter sigmoidal concentration response model.
# [2] = tested on: K-Ras G12C (NCI-H358 cells); experiment: Potency assay: pERK in NCI-H358 cells; format: cell-based, human; conditions: Homo sapiens; NCI-H358 cells, 4 hours; read-out: pERK EC50 (H358 KRAS G12C)
# In short: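 Cells plated the day before were exposed for 4 h at 37° C, 5% CO2 to a 10-point, 3-fold DMSO dilution series (10 mM top stock), in duplicate. Phospho-ERK was read by AlphaLISA SureFire Ultra or by In-Cell Western with DRAQ5 DNA stain, and IC50 came from a 4-parameter sigmoidal fit.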
# [3] = tested on: NCI-H358 cells (K-Ras G12C); experiment: CellTiter-Glo cell viability, NCI-H358; format: cell-based, human; conditions: Homo sapiens, NCI-H358, 120 h, K-Ras G12C, 5-day treatment; read-out: H358 Cell Viability IC50
# In short: (§1)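 Compounds were dispensed directly onto seeded cells and incubated until day 5, then plates were equilibrated at room temperature for about 30 min before CellTiter-Glo luminescence readout. Signals were normalized as (sample/average DMSO)×100 and fitted with a four-parameter logistic model.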
# [4] = biological target: NRAS WT (Homo sapiens (Human), UniProt P01111+P62937); experiment: Ras-Raf disruption/FRET/MOA assay (BRAF RBD, Cyclophilin A); format: biochemical
# In short: (§2)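 First, 25 μM Cyclophilin A, 12.5 nM His6-Ras-GMPPNP and 50 nM GST-BRAF RBD are mixed with diluted compound at pH 7.3. Next, 3 h at 25° C. Then 10 nM anti-His Eu-W1024 plus 50 nM anti-GST allophycocyanin for 1.5 h before TR-FRET reading.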
# [5] = biological target: KRAS G12S (Homo sapiens (Human), UniProt P01116+P62937, G12S); experiment: as above; format: biochemical; conditions: read-out: KRAS G12S FRET IC50
# In short: (§3)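 TR-FRET read after 1.5 h with 10 nM anti-His Eu-W1024 and 50 nM anti-GST APC, following 3 h at 25 °C of GMPPNP-loaded His6-Ras (12.5 nM), GST-BRAF RBD (50 nM) and Cyclophilin A (25 μM) with compound from 30 μM final, 10 points, 3-fold. IC50 reported; pH 7.3 HEPES, 100 mM NaCl.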
# [6] = biological target: NRAS Q61K (Homo sapiens (Human), UniProt P01111+P62937, Q61K); experiment: as above; format: biochemical
# In short: as §2
# [7] = biological target: KRAS G13C (Homo sapiens (Human), UniProt P01116+P62937, G13C); experiment: as above; format: biochemical; conditions: read-out: KRAS G13C FRET IC50
# In short: as §3
# [8] = biological target: KRAS G12D (Homo sapiens (Human), UniProt P01116+P62937, G12D); experiment: as above; format: biochemical; conditions: read-out: KRAS G12D FRET IC50
# In short: as §3
# [9] = biological target: KRAS G12C (Homo sapiens (Human), UniProt P01116+P62937, G12C); experiment: as above; format: biochemical; conditions: read-out: KRAS G12C FRET IC50
# In short: as §3
# [10] = biological target: NRAS G12C (Homo sapiens (Human), UniProt P01111+P62937, G12C); experiment: as above; format: biochemical; conditions: read-out: NRAS G12C FRET data IC50
# In short: as §2
# [11] = biological target: KRAS G12V (Homo sapiens (Human), UniProt P01116+P62937, G12V); experiment: as above; format: biochemical; conditions: read-out: KRAS G12V FRET IC50
# In short: as §3
# [12] = biological target: KRAS WT (Homo sapiens (Human), UniProt P01116+P62937); experiment: as above; format: biochemical; conditions: read-out: KRAS WT FRET data IC50
# In short: as §3
# [13] = biological target: KRAS G13D (Homo sapiens (Human), UniProt P01116+P62937, G13D); experiment: as above; format: biochemical; conditions: read-out: KRAS G13D FRET data IC50
# In short: as §3
# [14] = tested on: Capan-1 cells (K-Ras G12V); experiment: CellTiter-Glo cell viability, Capan-1; format: cell-based, human; conditions: Homo sapiens, CAPAN-1, 120 h, K-Ras G12V, 5-day treatment; read-out: Capan-1 Cell Viability IC50
# In short: as §1
# [15] = biological target: K-Ras G12C(GMP-PNP) binding to BRAF RBD (Homo sapiens (Human), UniProt P01116+P62937, G12C); experiment: Disruption of BRAF RBD interaction with K-Ras (FRET / MOA assay), K-Ras G12C; format: biochemical; conditions: read-out: KRAS G12C FRET IC50
# In short: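 Incubation of compound (up to 30 μM final, 3-fold steps) with GMP-PNP-type loaded Ras isoform, cyclophilin A and BRAF RBD ran 3 h at 25° C, followed by 1.5 h with detection antibodies. Disruption appears as a reduced TR-FRET ratio compared with DMSO controls, expressed as IC50.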
# [16] = tested on: NCI-H358 (K-Ras G12C); experiment: CellTiter-Glo cell viability assay, NCI-H358; format: cell-based, human; conditions: Homo sapiens, NCI-H358, 120 h, 5-day treatment; read-out: H358 Cell Viability assay data (K-Ras G12C, IC50)
# In short: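 NCI-H358 cells were treated with test compounds dispensed directly into the assay wells and incubated until day 5. Viability was then read by CellTiter-Glo luminescence after a ~30 min room-temperature equilibration, normalized to the DMSO average (×100), and fit with a four-parameter logistic curve.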
# [17] = ASPC1, AsPC-1 KRAS G12D, read-out: pERK EC50
# Sequence of KRAS G13D (P01116 other isoform, or with tags, fused parts or gaps G13D): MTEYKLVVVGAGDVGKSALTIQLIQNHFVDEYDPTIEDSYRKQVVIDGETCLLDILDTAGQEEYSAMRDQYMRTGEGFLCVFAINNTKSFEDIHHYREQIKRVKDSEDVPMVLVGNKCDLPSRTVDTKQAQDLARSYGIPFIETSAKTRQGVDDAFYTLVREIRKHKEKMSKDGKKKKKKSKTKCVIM
# Sequence of KRAS G13D (P62937 whole entry): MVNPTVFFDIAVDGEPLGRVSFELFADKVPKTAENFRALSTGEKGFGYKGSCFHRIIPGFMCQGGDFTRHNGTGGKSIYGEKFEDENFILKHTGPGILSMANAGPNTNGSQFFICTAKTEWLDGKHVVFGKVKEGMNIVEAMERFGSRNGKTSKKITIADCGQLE
# Sequence of KRAS WT (P01116 other isoform, or with tags, fused parts or gaps): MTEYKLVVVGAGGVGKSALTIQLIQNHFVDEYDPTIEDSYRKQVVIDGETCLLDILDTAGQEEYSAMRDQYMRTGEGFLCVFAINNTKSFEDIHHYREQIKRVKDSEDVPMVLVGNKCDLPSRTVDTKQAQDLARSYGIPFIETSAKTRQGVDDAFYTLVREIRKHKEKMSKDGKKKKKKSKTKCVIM
# Sequence of KRAS WT (P62937 whole entry): as the sequence (P62937 whole entry) above
# Sequence of NRAS G12C (P01111 whole entry G12C): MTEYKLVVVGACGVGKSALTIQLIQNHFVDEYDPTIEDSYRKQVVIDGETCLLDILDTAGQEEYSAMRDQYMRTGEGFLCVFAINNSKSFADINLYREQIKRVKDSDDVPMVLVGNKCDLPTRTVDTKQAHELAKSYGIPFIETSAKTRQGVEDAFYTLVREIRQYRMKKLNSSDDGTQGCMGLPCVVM
# Sequence of NRAS G12C (P62937 whole entry): as the sequence (P62937 whole entry) above
# Sequence of KRAS G12C (P01116-2 other isoform, or with tags, fused parts or gaps G12C): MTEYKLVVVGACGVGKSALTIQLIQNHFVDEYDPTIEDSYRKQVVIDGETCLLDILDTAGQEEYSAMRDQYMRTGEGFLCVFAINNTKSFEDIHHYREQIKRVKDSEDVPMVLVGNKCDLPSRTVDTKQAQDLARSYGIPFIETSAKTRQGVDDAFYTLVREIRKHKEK
# Sequence of KRAS G12C (P62937 whole entry): as the sequence (P62937 whole entry) above
# Sequence of NRAS Q61K (P01111 whole entry Q61K): as the sequence (P01111 whole entry G12C) above, with C12G, Q61K counted along it
# Sequence of NRAS Q61K (P62937 whole entry): as the sequence (P62937 whole entry) above
# Sequence of KRAS G13C (P01116 other isoform, or with tags, fused parts or gaps G13C): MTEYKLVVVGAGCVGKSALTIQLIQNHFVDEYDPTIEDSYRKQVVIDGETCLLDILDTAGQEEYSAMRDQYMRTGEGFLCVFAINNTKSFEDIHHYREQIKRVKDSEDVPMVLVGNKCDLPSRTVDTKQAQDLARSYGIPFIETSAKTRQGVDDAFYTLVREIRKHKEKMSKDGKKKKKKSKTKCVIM
# Sequence of KRAS G13C (P62937 whole entry): as the sequence (P62937 whole entry) above
# Sequence of NRAS WT (P01111 whole entry): as the sequence (P01111 whole entry G12C) above, with C12G counted along it
# Sequence of NRAS WT (P62937 whole entry): as the sequence (P62937 whole entry) above
# Sequence of KRAS G12V (P01116 other isoform, or with tags, fused parts or gaps G12V): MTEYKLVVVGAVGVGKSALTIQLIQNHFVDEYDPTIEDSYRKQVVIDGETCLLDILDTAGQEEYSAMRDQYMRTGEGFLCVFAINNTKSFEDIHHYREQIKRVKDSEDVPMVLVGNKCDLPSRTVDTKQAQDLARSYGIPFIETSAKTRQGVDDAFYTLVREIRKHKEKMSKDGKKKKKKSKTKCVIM
# Sequence of KRAS G12V (P62937 whole entry): as the sequence (P62937 whole entry) above
# Sequence of KRAS G12S (P01116 other isoform, or with tags, fused parts or gaps G12S): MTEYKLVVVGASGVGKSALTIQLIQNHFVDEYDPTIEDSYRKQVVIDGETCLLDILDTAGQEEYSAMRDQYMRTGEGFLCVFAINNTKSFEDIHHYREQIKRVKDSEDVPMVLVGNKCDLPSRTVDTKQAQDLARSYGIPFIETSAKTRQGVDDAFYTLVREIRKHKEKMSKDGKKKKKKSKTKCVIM
# Sequence of KRAS G12S (P62937 whole entry): as the sequence (P62937 whole entry) above
# Sequence of KRAS G12D (P01116 other isoform, or with tags, fused parts or gaps G12D): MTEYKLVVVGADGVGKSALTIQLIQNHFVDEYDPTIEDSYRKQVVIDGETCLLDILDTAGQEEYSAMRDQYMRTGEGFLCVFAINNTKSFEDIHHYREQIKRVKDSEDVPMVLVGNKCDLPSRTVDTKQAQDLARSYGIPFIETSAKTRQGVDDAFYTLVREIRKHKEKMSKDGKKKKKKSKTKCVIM
# Sequence of KRAS G12D (P62937 whole entry): as the sequence (P62937 whole entry) above
# Sequence of K-Ras G12C(GMP-PNP) binding to BRAF RBD (P01116 other isoform, or with tags, fused parts or gaps G12C): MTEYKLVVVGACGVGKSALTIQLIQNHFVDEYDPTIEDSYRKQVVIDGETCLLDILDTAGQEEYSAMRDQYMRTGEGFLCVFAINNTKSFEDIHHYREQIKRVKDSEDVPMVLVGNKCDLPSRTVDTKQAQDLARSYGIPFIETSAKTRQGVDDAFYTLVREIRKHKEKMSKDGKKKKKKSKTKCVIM
# Sequence of K-Ras G12C(GMP-PNP) binding to BRAF RBD (P62937 whole entry, canonical isoform): as the sequence (P62937 whole entry) above
compound,measurement,setting,value
"CCn1c(-c2cccnc2[C@H](C)OC)c2c3cc(ccc31)-c1cc(O)cc(c1)C[C@H](NC(=O)[C@H](C(C)C)N(C)C(=O)N1CCN(C(=O)[C@@H]3CN3)CC1)C(=O)N1CCC[C@H](N1)C(=O)OCC(C)(C)C2 (atropisomer, axis not shown) [Example 197]",EC50,[1]; [17],< 5 µM
CO[C@@H](C)c1ncccc1-c1c2c3cc(ccc3n1C)-c1cc(O)cc(c1)C[C@H](NC(=O)[C@H](C(C)C)N(C)C(C)=O)C(=O)N1CCC[C@H](N1)C(=O)OCC(C)(C)C2 [Compound A104],EC50,[2],< 5 µM
same,IC50,[3],1 to 10 µM
same,IC50,[4],1 to 10 µM
same,IC50,[5],> 10 µM
same,IC50,[6],1 to 10 µM
same,IC50,[7],1 to 10 µM
same,IC50,[8],> 10 µM
same,IC50,[9],1 to 10 µM and > 10 µM
same,IC50,[10],> 10 µM
same,IC50,[11],> 10 µM
same,IC50,[12],> 10 µM
same,IC50,[13],> 10 µM
same,IC50,[14],> 10 µM
CCn1c(-c2cccnc2[C@H](C)OC)c2c3cc(ccc31)-c1cc(O)cc(c1)C[C@H](NC(=O)[C@H](C(C)C)N(C)C(=O)C1(C(=O)O)CC1)C(=O)N1CCC[C@H](N1)C(=O)OCC(C)(C)C2 [Compound A150],IC50,[4],1 to 10 µM
same,IC50,[5],> 10 µM
same,IC50,[6],1 to 10 µM
same,IC50,[7],1 to 10 µM
same,IC50,[8],> 10 µM
same,IC50,[9],1 to 10 µM
same,IC50,[10],1 to 10 µM
same,IC50,[11],> 10 µM
same,IC50,[12],1 to 10 µM
same,IC50,[13],> 10 µM
same,IC50,[15],10 to 100 nM
same,IC50,[14],> 10 µM
same,IC50,[16],< 10 nM
CCn1c(-c2cccnc2[C@H](C)OC)c2c3cc(ccc31)-c1csc(n1)C[C@H](NC(=O)[C@H](C(C)C)N1CCC3(CN(S(C)(=O)=O)C3)C1=O)C(=O)N1CCC[C@H](N1)C(=O)OCC(C)(C)C2 [Compound A234],IC50,[4],1 to 10 µM
same,IC50,[5],> 10 µM
same,IC50,[6],1 to 10 µM
same,IC50,[7],1 to 10 µM
same,IC50,[8],> 10 µM
same,IC50,[10],> 10 µM
same,IC50,[11],> 10 µM
same,IC50,[12],1 to 10 µM
same,IC50,[13],> 10 µM
same,IC50,[14],> 10 µM
CCn1c(-c2cccnc2[C@H](C)OC)c2c3cc(ccc31)-c1cc(O)cc(c1)C[C@H](NC(=O)[C@H](C(C)C)N(C)C(=O)CN(C)C(=O)[C@H]1CN1)C(=O)N1CCC[C@H](N1)C(=O)OCC(C)(C)C2 [Example 42A],EC50,"[1]; ASPC1, read-out: pERK EC50",< 5 µM
CCn1c(-c2cccnc2[C@H](C)OC)c2c3cc(ccc31)-c1cc(O)cc(c1)C[C@H](NC(=O)[C@H](C(C)C)N(C)C(=O)c1ccc([C@@H]3CN3)cc1)C(=O)N1CCC[C@H](N1)C(=O)OCC(C)(C)C2 [Example 131],EC50,[1]; [17],< 5 µM
"CCn1c(-c2cccnc2[C@H](C)OC)c2c3cc(ccc31)-c1cc(O)cc(c1)C[C@H](NC(=O)[C@H](C(C)C)N(C)C(=O)N1CCN(C(=O)[C@H]3CN3)CC1)C(=O)N1CCC[C@H](N1)C(=O)OCC(C)(C)C2 [Example 177, 4-((R)-aziridine-2-carbonyl)-N-((2S)-1-(((6^3S,4S)-1^1-ethyl-2^5-hydroxy-1^2-(2-((S)-1-methoxyethyl)pyridin-3-yl)-10,10-dimethyl-5,7-dioxo-6^1,6^2,6^3,6^4,6^5,6^6-hexahydro-1^1H-8-oxa-1 (5,3)-indola-6 (1,3)-pyridazina-2 (1,3)-benzenacycloundecaphane-4-yl)amino)-3-methyl-1-oxobutan-2-yl)-N-methylpiperazine-1-carboxamide]",EC50,[1]; [17],< 5 µM
CCn1c(-c2cccnc2[C@H](C)OC)c2c3cc(ccc31)-c1cc(O)cc(c1)C[C@H](NC(=O)[C@H](C1CCCC1)N1CC[C@@]3(CCN(C(=O)[C@@H]4N[C@@H]4C4CC4)C3)C1=O)C(=O)N1CCC[C@H](N1)C(=O)OCC(C)(C)C2 [Example 215],EC50,[1]; [17],< 5 µM
CCn1c(-c2cccnc2[C@H](C)OC)c2c3cc(ccc31)-c1csc(n1)C[C@H](NC(=O)[C@H](C1CCCC1)N1CC[C@]3(CCN(C(=O)[C@@H]4N[C@@H]4C4CC4)C3)C1=O)C(=O)N1CCC[C@H](N1)C(=O)OCC(C)(C)C2 [Example 234],EC50,[1]; [17],< 5 µM
CCn1c(-c2cccnc2[C@H](C)OC)c2c3cc(ccc31)-c1cc(O)cc(c1)C[C@H](NC(=O)[C@H](C(C)C)N(C)C(=O)CN(C)C(=O)[C@@H]1CN1CCCN1CCCC1=O)C(=O)N1CCC[C@H](N1)C(=O)OCC(C)(C)C2 (some centres unmarked) [Example 269],EC50,"[1]; ASPC1, read-out: pERK EC50",< 5 µM
CCn1c(-c2cccnc2[C@H](C)OC)c2c3cc(ccc31)-c1cc(cc(C(F)F)c1)C[C@H](NC(=O)[C@H](C1CCCC1)N1CC[C@]3(CCN(C(=O)[C@@H]4N[C@@H]4C4CC4)C3)C1=O)C(=O)N1CCC[C@H](N1)C(=O)OCC(C)(C)C2 [Example 318],EC50,[1]; [17],< 5 µM
